Columns and labels:
[1] = test system: 227-resistant mutants of M. tuberculosis H37rv; assay type: cell-based
M. tuberculosis H37Rv = assay type: cell-based
[2] = test system: MmpL3 over- (+ATc) expressing Mtb H37Rv; assay type: cell-based, M. tuberculosis

| Structure (SMILES) | IC50 [1] [µM] | estimated frequency of resistance (M. tuberculosis H37Rv) | susceptibility shift in MmpL3 over-expressing strain [2] |
| --- | --- | --- | --- |
| O=C(Nc1ccc(Cl)c(C(F)(F)F)c1)NC1CCCCC1 [Compound 227] | 3.3 | 1.5 × 10^−7 |  |
| CC[C@@H](CO)NCCN[C@@H](CC)CO [Ethambutol] |  |  | no significant shifts |
